Several values for one entry are separate records, joined by “and”; a condition that tells them apart may be missing. Equal entries are not always repeated. One block for each molecule: values may come before it.
Legend:
HCC1806 cells = assay: [14C]alanine uptake in non-depleted HCC1806 cells; type: cell-based, human; details: amino acid replete HCC1806 cells
Procedure: (§1) Functional characterisation of plasma membrane transporters in human cancer cells was determined at 37°C using an array of radiolabelled amino acid substrates. Modified Hanks HEPES-buffered salts solution (mHBSS; 137 mM NaCl; 5.4 mM KCl; 2.7 mM K2HPO4; 1 mM CaCl2; 0.5 mM MgCl2; 0.44 mM KH2PO4; 0.4 mM MgSO4; 5 mM D-glucose; 5 mM HEPES; pH 7.4) was used to wash and incubate cells where sodium dependent transport was measured, while N-methyl-D-glucamine (NMDG) and potassium salts substituted sodium in NMDG mHBSS to measure sodium independent uptake. For the assay, cells were seeded in 35 mm dishes and, once confluent, were washed thrice with warm mHBSS solution and incubated with mHBSS containing an 100 µM amino acid at a final specific activity of ≥2000 cpm/nmol (U-[^14C]amino acids were from PerkinElmer). After 6 min, cells were washed thrice with ice-cold mHBSS, lysed with 500 µl of 0.1 M HCl, detached with a cell scraper and triturated. A 400 µl aliquot was used for scintillation counting, while the remainder was saved for protein mass quantification by Bradford assay. Transport rates were normalised to the protein content of the culture dish.

SNAT1/2 [1] = assay: FMP assay: depolarisation by amino acid substrates in amino acid depleted HCC1806 cells; type: cell-based, human; details: for FMP fluorescence reading: amino acid 1 mM final
Procedure: The FLIPR Membrane Potential Blue Explorer Kit (Molecular Devices) was used to characterise inhibitors and to optimise a high-throughput compound screen. Cells were seeded at approximately 60,000 cells/well on a 96-well plate and allowed to attach and grow overnight in a cell incubator. […] Cells were then washed once with mHBSS and incubated with 50 µl of the mHBSS-resuspended FMP assay dye and 50 µl of mHBSS (with or without inhibitors) and incubated at room temperature for 30 min. The plate was then placed in an EnSpire Multimode plate reader (PerkinElmer) and four sequential measurements of fluorescence were recorded as a baseline reference. Immediately after the baseline measurements were taken, 25 µl of 5 mM glutamine dissolved in mHBSS was injected into each well and the plate was shaken orbitally for 5 s before a series of consecutive fluorescence measurements were taken. The excitation wavelength was set to 530 nm and the emission was detected at 565 nm. […] After the assay was complete, the liquid content of the plate was carefully removed, and the cell monolayer inspected to ensure it remained intact throughout the course of the assay.

SNAT1 and SNAT2 [2] = assay: FMP assay in HCC1806 clones C10 (ASCT2ko) and D126 (ASCT2ko, SNAT2ko); type: cell-based, human; details: MeAIB 10 mM; glutamine 1 mM
Procedure: (§2) To delete the SNAT2 (SLC38A2) gene in modified HCC1806 cells (clone C10 nullizygous for ASCT2 ([Broer et al., 2019])), the GeneArt CRISPR Nuclease Vector with OFP Reporter Kit (Invitrogen; A21174) was employed and complementary 19–20 bp long single-stranded oligonucleotides with overhangs were designed to produce a guide RNA (gRNA) for the Cas9 nuclease that would target exon 7 of the SNAT2 gene. Colonies were analysed by sequencing using the U6 primer included in the GeneArt CRISPR Nuclease Vector with OFP Reporter kit. Plasmids that contained the correct CRISPR nuclease construct were then used to transfect HCC1806 cells with Lipofectamine 2000 (Invitrogen). Prior to transfection, medium was replaced with 2 ml of fresh DMEM/F-12 (supplemented with 10% heat-inactivated FBS and 2 mM glutamine). Plasmid DNA (4 µg) and 10 µL of Lipofectamine 2000 were incubated separately for 5 min at room temperature in 500 µl of Opti-MEM (Invitrogen) before being combined and incubated for a further 30 min at room temperature. The DNA-Lipofectamine complex was then added to the cells in a dropwise manner and allowed to be absorbed over 6 h at 37°C, after which the medium was renewed with fresh DMEM/F-12. Cells were checked for red fluorescence using an EVOS FL cell imaging system (Thermo Fisher Scientific) 48–72 h post transfection. Subsequently, cells were detached using 0.25% Trypsin EDTA. After harvesting and washing thrice with PBS (pH 7.4), cells were resuspended in PBS (pH 7.4) supplemented with 5 mM glucose and 1% dialysed and heat inactivated FBS and passed through a 100 μm cell strainer. The cell filtrate was then pelleted once more and resuspended in the same buffer. Cells were sorted using an ARIA II FACS machine and individually dispensed into the wells of a 96-well plate. Nullizygous clones were identified using a series of assays including the FLIPR membrane potential assay, western blotting and sequencing.
The FLIPR Membrane Potential Blue Explorer Kit (Molecular Devices) was used to characterise inhibitors and to optimise a high-throughput compound screen. Cells were seeded at approximately 60,000 cells/well on a 96-well plate and allowed to attach and grow overnight in a cell incubator. The next day, the cells were washed once with mHBSS and incubated in a starvation medium (composed of mHBSS with 1% dialysed heat-inactivated FBS, 23 mM NaHCO3, 10 U/ml penicillin and 10 μg/ml streptomycin) for 24 h. Cells were then washed once with mHBSS and incubated with 50 µl of the mHBSS-resuspended FMP assay dye and 50 µl of mHBSS (with or without inhibitors) and incubated at room temperature for 30 min. The plate was then placed in an EnSpire Multimode plate reader (PerkinElmer) and four sequential measurements of fluorescence were recorded as a baseline reference. Immediately after the baseline measurements were taken, 25 µl of 5 mM glutamine dissolved in mHBSS was injected into each well and the plate was shaken orbitally for 5 s before a series of consecutive fluorescence measurements were taken. The excitation wavelength was set to 530 nm and the emission was detected at 565 nm. The Δ fluorescent signal reported in the figures was taken 30 s after substrate addition. After the assay was complete, the liquid content of the plate was carefully removed, and the cell monolayer inspected to ensure it remained intact throughout the course of the assay.

SNAT1/2 [3] = assay: [14C]glutamine uptake in HCC1806 cells; type: cell-based, human
Procedure: as §1

SNAT2 = assay: Radiolabelled proline uptake in amino acid depleted SKOV3 cells; type: cell-based, human; details: for inhibition of proline uptake: 10 mM
Procedure: as §1
IC50 were calculated using equation y=ymax(1−x/x+IC50)

SNAT1 = target: T1, SNAT1 (Homo sapiens, UniProt Q9H2H9); assay: Alanine uptake in HCC1806 D126 (ASCT2ko, SNAT2ko) cells; type: cell-based
T1 construct: SNAT1 remained active as indicated by the Na^+-dependence of alanine uptake; endogenous in cells; host or cells: HCC1806 clone D126 (ASCT2ko, SNAT2ko), amino acid depleted for 24 h
T1 sequence (Q9H2H9 1-487): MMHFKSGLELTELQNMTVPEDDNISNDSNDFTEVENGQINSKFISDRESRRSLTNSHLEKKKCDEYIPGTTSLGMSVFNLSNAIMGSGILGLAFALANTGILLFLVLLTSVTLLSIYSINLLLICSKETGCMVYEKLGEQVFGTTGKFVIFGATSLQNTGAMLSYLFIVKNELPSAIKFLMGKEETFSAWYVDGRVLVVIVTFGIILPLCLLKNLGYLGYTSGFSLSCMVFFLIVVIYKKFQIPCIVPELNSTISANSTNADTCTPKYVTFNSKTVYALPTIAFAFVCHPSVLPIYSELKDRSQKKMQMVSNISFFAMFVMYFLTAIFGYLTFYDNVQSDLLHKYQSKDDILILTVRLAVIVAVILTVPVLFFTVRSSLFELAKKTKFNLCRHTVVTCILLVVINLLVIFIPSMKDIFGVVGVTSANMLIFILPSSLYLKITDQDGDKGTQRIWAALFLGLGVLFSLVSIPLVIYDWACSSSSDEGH
Procedure: as §2, §1

SNAT1 and SNAT2 [4] = assay: High-throughput compound screen, FMP assay in 384-well format (primary, confirmatory, control compounds); type: cell-based, human; details: 10 mM, 1 mM glutamine
Procedure: For the high-throughput compound screen, the FMP assay was adapted into a 384-well format within the ANU Centre for Therapeutic Discovery. […] Compounds Australia stores compounds under robust environmental conditions and supplies them in assay ready plate format. We screened 33,934 compounds from the Collection Scaffold Library. Cells (10,000/well) were seeded into Corning 384-well black walled plates (CLS3985; Sigma-Aldrich) using a Multidrop Combi liquid dispensing robot (Thermo Fisher) in a 40 µl volume. Once seeded, cells were allowed to grow in a microplate incubator (Liconic) for 24 h at 37°C (humidified atmosphere with 95% air and 5% CO2). Subsequently, plates were washed thrice with 50 µL of mHBSS using a 405 TS washer (BioTek). Then, 50 µl of starvation medium was added and cells were incubated again for 24 h.
Assay-ready compound plates (384 well plates containing compound or DMSO controls) were then prepared prior to addition to cells. In addition to the supplied compounds, 5 µl γ-glutamyl-hydroxamate (GHX, 60 mM dissolved in mHBSS, serving as an inhibitor control) was added into inhibitor control wells using a JANUS G3 robot (PerkinElmer). Subsequently, 25 uL of mHBSS was dispensed into all wells of the 384 well plate using a Multidrop Combi. All samples were then mixed using the JANUS G3 robot and 15 µl dispensed on top of the cell monolayer to reach a final concentration of 10.05 µM.
The FMP dye was solved freshly with mHBSS, 20 µl of which was deposited into each well using the Multidrop Combi, and the cells were incubated at room temperatur for 30 min. Each plate was then placed in an EnVision microplate reader (PerkinElmer) and a single baseline measurement was taken for each well (bottom reads excitation at 531, emission at 579 nm). The plate was then transferred to the Multidrop Combi and 10 µl/well of 5 mM glutamine was dispensed into each well. After linearly shaking for 5 s, microplates were returned to the EnVision microplate reader for a single post-injection measurement per well. The change of fluorescence was measured after 60 s.
Z′ scores were calculated from the controls onboard each of the 384-well plates assayed in the primary and secondary screen as described by Zhang et al., ([Zhang et al., 1999]). For the control inhibitor γ-glutamyl-hydroxamate (GHX) a Z’ score of 0.717 was determined, which was a sufficient signal for a HTS.

Compound: N[C@@H](CCC(=O)Nc1ccc([N+](=O)[O-])cc1)C(=O)O [GPNA, γ-glutamyl-p-nitroanilide]
inhibition of alanine transport (HCC1806 cells): inhibited a large fraction of alanine transport

inhibition of alanine uptake (SNAT1; HCC1806 D126, Figure 4B, betaine and MeAIB 10 mM): inhibition
Compound: CNC(C)(C)C(=O)O [MeAIB, N-methyl-aminoisobutyric acid]
FMP response as substrate (SNAT1/2 [1]; 1 mM): weaker signal
FMP fluorescence reading (SNAT1/2 [1]; t=0 s): 49084 and 50100 and 40663
FMP fluorescence reading (SNAT1/2 [1]; t=15 s): 81984 and 86589 and 75934
FMP fluorescence reading (SNAT1/2 [1]; t=30 s): 86634 and 91101 and 78520
FMP fluorescence reading (SNAT1/2 [1]; t=45 s): 90066 and 93398 and 80464
FMP fluorescence reading (SNAT1/2 [1]; t=60 s): 92350 and 95113 and 80900
FMP fluorescence reading (SNAT1/2 [1]; t=75 s): 92919 and 96006 and 80942
FMP fluorescence reading (SNAT1/2 [1]; t=90 s): 93944 and 96169 and 81331
FMP fluorescence reading (SNAT1/2 [1]; t=105 s): 93680 and 96448 and 80487
FMP fluorescence reading (SNAT1/2 [1]; t=120 s): 93733 and 95947 and 80206
FMP fluorescence reading (SNAT1/2 [1]; t=135 s): 93032 and 95155 and 78841
FMP fluorescence reading (SNAT1/2 [1]; t=-15 s): 48467 and 50314 and 40490
FMP fluorescence reading (SNAT1/2 [1]; t=-30 s, replicates 1-3): 48576 and 50230 and 40217
FMP signal in D126 cells (ASCT2ko, SNAT2ko) compared to C10 (SNAT1 and SNAT2 [2]): 42%
Glutamine uptake (SNAT1/2 [3]; AA+ (growth medium), 100 µM glutamine, replicates 1-3): 39.8616 nmol / mg protein x 6 min and 35.3498 nmol / mg protein x 6 min and 40.7838 nmol / mg protein x 6 min
Glutamine uptake (SNAT1/2 [3]; AA- (starvation medium 24 h), 100 µM glutamine, replicates 1-3): 8.629 nmol / mg protein x 6 min and 3.7831 nmol / mg protein x 6 min and 8.492 nmol / mg protein x 6 min
Glutamine uptake (nmol / mg protein x 6 min) (SNAT1/2 [3]; Figure 3D, replicates 1-3): 35.1959 nmol / mg protein x 6 min and 29.1234 nmol / mg protein x 6 min and 25.7847 nmol / mg protein x 6 min
reduction of glutamine uptake (SNAT1/2 [3]; amino acid depleted HCC1806 cells (24 h), 100 µM glutamine): 80%
inhibition of glutamine uptake (SNAT1/2 [3]; fed HCC1806 cells): barely inhibited
inhibition of proline uptake (SNAT2; Figure 4A): strong inhibition
inhibition of proline uptake (SNAT2; Figure 4D (15 h starvation)): almost completely
Proline uptake (nmol / mg protein x 6 min) (SNAT2; Figure 4A, 10mM, replicates 1-3): 3.275 nmol / mg protein x 6 min and 3.216 nmol / mg protein x 6 min and 2.965 nmol / mg protein x 6 min
Proline uptake (nmol / mg protein x 6 min) (SNAT2; Figure 5B, reference inhibitors, replicates): 1.301 nmol / mg protein x 6 min and 1.471 nmol / mg protein x 6 min and 1.547 nmol / mg protein x 6 min
Alanine uptake (nmol / mg protein x 6 min) (SNAT1; Figure 4B, 10mM, replicates 1-3): 11.1023 nmol / mg protein x 6 min and 10.5839 nmol / mg protein x 6 min and 9.888 nmol / mg protein x 6 min

Compound: OC[C@H]1OC(O)[C@H](O)[C@@H](O)[C@@H]1O (stereo partly shown) [glucose]
influence on FMP signal (SNAT1 and SNAT2 [4]): did not influence the signal

Compound: CC(=O)C(=O)O [pyruvate]
influence on FMP signal (SNAT1 and SNAT2 [4]): did not influence the signal

— article PMC9532951, “Identification and characterization of a novel SNAT2 (SLC38A2) inhibitor reveals synergy with glucose transport inhibition in cancer cells” (Frontiers in Pharmacology, 2022)
